Assay results: PMC12136037, “Type II kinase inhibitors that target Parkinson’s disease–associated LRRK2” (Science Advances, 2025)
Several values for one entry are separate records, joined by “and”; a condition that tells them apart may be missing. Equal entries are not always repeated. Entries after “also recorded” stand apart in the source; their conditions may differ.

What was measured:
Assay type in all cases: cell-based
LRRK2 = target: T1, LRRK2 (Homo sapiens, UniProt Q5S007); assay: Western blot of Rab8a phosphorylation (pT72) in 293T cells transfected with wild-type LRRK2 and GFP-Rab8a
T1 construct: wild-type full-length LRRK2 (pcDNA5-LRRK2, RRID: Addgene_229019)
T1 sequence (Q5S007 whole entry): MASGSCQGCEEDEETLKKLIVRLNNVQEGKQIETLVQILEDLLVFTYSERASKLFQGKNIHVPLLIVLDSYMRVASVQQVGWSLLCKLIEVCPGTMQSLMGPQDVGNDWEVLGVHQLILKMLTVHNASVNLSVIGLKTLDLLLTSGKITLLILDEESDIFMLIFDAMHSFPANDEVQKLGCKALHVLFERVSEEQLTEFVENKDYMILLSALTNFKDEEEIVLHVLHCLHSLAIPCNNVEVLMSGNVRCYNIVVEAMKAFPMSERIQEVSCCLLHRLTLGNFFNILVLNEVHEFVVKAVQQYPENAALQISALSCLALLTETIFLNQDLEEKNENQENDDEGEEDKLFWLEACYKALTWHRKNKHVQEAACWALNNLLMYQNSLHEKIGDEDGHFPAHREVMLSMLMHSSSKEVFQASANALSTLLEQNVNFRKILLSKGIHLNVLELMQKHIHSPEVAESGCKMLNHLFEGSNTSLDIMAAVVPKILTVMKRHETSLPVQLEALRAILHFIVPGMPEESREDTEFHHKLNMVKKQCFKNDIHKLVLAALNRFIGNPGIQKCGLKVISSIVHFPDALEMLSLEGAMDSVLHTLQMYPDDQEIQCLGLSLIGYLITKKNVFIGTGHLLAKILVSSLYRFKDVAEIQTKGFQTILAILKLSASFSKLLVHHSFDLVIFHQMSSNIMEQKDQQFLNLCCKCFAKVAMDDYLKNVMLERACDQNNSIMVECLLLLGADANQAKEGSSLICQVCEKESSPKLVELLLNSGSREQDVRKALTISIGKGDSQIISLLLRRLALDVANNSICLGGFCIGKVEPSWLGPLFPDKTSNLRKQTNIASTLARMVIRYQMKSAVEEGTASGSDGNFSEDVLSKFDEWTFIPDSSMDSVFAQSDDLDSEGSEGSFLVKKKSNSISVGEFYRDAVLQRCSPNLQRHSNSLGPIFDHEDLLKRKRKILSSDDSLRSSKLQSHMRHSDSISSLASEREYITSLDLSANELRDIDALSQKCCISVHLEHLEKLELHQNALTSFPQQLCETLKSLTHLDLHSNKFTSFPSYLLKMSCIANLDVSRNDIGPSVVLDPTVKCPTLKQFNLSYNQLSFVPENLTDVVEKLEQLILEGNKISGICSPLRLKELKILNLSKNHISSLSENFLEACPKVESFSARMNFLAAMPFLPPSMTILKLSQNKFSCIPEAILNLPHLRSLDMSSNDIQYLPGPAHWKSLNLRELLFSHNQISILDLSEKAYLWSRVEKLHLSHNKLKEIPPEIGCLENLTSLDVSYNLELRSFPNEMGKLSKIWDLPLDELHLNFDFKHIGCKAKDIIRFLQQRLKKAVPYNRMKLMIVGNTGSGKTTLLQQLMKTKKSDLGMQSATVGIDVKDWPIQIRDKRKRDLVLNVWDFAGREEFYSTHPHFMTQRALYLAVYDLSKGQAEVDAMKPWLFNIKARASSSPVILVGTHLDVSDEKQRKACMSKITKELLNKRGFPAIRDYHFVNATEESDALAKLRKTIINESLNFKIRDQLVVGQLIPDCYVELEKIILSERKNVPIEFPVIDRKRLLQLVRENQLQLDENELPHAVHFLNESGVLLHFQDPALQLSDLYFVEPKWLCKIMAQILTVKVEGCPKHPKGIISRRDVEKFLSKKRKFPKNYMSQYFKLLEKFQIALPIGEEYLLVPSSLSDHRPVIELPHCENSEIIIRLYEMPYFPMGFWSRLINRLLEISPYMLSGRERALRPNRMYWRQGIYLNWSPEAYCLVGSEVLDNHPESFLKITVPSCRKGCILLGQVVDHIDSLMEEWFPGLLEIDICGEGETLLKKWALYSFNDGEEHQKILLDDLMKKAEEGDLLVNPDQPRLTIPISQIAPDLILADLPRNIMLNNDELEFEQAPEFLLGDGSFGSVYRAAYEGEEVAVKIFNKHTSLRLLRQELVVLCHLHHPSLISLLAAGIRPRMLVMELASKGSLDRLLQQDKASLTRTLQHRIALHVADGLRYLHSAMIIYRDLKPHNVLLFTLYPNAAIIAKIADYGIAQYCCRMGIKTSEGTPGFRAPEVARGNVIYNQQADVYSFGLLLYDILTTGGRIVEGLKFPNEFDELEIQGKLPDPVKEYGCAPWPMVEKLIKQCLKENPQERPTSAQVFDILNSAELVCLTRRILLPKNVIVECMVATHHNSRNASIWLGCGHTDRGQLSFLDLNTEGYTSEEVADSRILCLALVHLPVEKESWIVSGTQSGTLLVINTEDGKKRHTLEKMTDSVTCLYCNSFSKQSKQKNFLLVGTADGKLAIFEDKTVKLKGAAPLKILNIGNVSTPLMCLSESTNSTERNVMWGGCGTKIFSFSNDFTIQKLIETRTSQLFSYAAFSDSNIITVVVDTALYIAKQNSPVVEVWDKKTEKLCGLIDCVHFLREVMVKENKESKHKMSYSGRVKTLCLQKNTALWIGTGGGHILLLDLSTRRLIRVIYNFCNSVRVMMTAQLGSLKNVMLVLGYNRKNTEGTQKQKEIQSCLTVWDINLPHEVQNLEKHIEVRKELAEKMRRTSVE
Protocol: (§1) For all in cell kinase assays, after 48 hours, transfected cells were treated with either DMSO (control) or the indicated inhibitors for 4 hours at 37°C and 5% CO2. Following treatments, cells were washed three times with ice cold PBS. Cells were then lysed in ice cold radioimmunoprecipitation assay (RIPA) lysis buffer [50 mM tris (pH 8.0), 150 mM NaCl, 1% Triton X-100, 0.1% SDS, 0.5% sodium deoxycholate, and 1 mM DTT] in the presence of complete mini EASYpack protease inhibitor cocktail and the PhosSTOP EASYpack phosphatase inhibitor cocktail (Roche). Resuspended and lysed cells were clarified by centrifugation at 13,000g for 15 min at 4°C. […] The membrane was blocked in 5% milk in 1× Tris-buffered saline (TBS) [20 mM tris (pH 8.0) and 150 mM NaCl] for 1 hour shaking at room temperature. […] Membranes were then washed three times in 1× TBS-T before imaging on Li-COR Odyssey CLx controlled by Imaging Studio software (www.licorbio.com/image-studio, RRID:SCR_015795). […] The signal intensity of each band was assessed using the Analyze>Gels tool. The band intensity for phosphorylated LRRK2 was measured and compared to total LRRK2 levels (run under identical conditions on a separate gel). Band intensity for phosphorylated Rab7 or Rab8a was measured and compared against total GFP-Rab7 or GFP-Rab8a (using anti-GFP antibody) and LRRK1/LRRK2 levels as appropriate. Comparative statistical analysis of phosphorylation levels was analyzed using a one-way analysis of variance (ANOVA) and corrected using Tukey’s multiple comparisons test in GraphPad Prism 10 (www.graphpad.com/, RRID:SCR_002798).

G2019S LRRK2 = target: T2, G2019S LRRK2 (Homo sapiens, UniProt Q5S007, G2019S); assay: Western blot of Rab8a phosphorylation in 293T cells transfected with G2019S LRRK2 and GFP-Rab8a
T2 construct: The three constructs used in this study are indicated: full-length LRRK2, LRRK2^RCKW, and LRRK2^KW
T2 sequence (Q5S007 whole entry G2019S): as the sequence (Q5S007 whole entry) above, with G2019S counted along it
Protocol: as §1

LRRK1 = LRRK1 (Homo sapiens, UniProt Q38SD2); assay: Western blot of Rab7 phosphorylation (pS72) in 293T cells transfected with LRRK1 and GFP-Rab7; settings: for pRab7/Rab7/LRRK1 normalized to DMSO, Mean / pRab7/Rab7/LRRK1 normalized to DMSO: 4 h; for pRab7/Rab7/LRRK1 normalized to DMSO, Mean: 3 replicates; for pRab7/Rab7/LRRK1 normalized to DMSO: individual Western blots
Chain of LRRK1 (Q38SD2 whole entry): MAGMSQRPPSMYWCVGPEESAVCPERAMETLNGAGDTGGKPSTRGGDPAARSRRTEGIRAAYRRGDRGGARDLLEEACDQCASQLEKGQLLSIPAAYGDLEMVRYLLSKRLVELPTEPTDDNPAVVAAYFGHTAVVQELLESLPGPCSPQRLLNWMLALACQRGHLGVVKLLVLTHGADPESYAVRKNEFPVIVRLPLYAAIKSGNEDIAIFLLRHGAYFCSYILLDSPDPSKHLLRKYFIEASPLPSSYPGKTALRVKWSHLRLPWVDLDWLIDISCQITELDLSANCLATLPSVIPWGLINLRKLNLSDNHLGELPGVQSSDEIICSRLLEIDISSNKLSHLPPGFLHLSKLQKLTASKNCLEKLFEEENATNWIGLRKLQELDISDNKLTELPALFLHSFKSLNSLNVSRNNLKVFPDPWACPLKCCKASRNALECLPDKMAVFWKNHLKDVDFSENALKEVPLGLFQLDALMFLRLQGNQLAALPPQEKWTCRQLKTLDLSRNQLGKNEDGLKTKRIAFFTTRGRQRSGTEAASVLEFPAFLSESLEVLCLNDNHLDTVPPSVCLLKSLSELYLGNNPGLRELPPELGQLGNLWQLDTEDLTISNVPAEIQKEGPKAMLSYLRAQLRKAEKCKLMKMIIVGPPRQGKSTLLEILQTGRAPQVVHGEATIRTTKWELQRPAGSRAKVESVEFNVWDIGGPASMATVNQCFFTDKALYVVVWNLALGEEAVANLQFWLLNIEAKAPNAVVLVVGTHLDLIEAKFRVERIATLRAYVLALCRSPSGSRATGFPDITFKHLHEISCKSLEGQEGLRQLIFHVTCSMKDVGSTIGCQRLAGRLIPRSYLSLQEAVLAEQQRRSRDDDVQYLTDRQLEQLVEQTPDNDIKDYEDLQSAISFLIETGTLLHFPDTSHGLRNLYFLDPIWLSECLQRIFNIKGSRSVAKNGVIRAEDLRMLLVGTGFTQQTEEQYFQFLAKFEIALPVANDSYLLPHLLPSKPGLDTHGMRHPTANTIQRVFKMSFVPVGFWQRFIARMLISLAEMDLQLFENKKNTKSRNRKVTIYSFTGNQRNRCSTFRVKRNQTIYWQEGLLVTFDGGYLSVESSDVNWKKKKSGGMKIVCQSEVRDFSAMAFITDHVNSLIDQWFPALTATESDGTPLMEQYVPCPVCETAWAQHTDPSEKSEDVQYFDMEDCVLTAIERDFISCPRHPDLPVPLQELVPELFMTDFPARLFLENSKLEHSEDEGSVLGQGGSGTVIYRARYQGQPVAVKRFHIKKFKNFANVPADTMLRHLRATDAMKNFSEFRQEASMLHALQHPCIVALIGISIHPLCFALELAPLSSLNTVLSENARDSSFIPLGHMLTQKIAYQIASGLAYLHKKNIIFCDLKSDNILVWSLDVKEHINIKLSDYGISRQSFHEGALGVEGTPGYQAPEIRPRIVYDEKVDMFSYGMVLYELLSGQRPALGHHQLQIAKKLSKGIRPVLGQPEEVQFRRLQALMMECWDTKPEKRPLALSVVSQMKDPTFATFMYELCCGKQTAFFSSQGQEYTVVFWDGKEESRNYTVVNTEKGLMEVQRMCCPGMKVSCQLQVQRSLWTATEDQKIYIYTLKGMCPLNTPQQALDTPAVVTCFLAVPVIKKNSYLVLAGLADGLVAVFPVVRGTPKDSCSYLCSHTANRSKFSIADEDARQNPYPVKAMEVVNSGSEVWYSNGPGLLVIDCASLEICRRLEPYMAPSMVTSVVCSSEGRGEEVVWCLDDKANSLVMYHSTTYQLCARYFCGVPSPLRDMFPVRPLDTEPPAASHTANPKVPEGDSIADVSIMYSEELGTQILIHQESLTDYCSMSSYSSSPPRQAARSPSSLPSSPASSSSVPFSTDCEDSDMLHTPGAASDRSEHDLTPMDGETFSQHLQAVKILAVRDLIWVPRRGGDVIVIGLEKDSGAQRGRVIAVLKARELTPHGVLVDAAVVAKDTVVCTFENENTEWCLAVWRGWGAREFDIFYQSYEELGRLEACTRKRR
Protocol: For all in cell kinase assays, after 48 hours, transfected cells were treated with either DMSO (control) or the indicated inhibitors for 4 hours at 37°C and 5% CO2. Following treatments, cells were washed three times with ice cold PBS. Cells were then lysed in ice cold radioimmunoprecipitation assay (RIPA) lysis buffer [50 mM tris (pH 8.0), 150 mM NaCl, 1% Triton X-100, 0.1% SDS, 0.5% sodium deoxycholate, and 1 mM DTT] in the presence of complete mini EASYpack protease inhibitor cocktail and the PhosSTOP EASYpack phosphatase inhibitor cocktail (Roche). Resuspended and lysed cells were clarified by centrifugation at 13,000g for 15 min at 4°C. NuPAGE LDS Sample Buffer (1×) and NuPAGE Sample Reducing Agent (1×; Invitrogen) were added to the clarified supernatants, and the samples were boiled at 95°C for 5 min and spun down at 13,000g for 10 min. For Western blotting, 15 μl of sample was loaded into a NuPAGE 4 to 12% gradient bis-tris gel (Invitrogen) and run at 120 V for 75 min before transfer to polyvinylidene difluoride transfer membrane (0.45-μm pore size, Millipore) for 240 min at 80 V at 4°C. The membrane was blocked in 5% milk in 1× Tris-buffered saline (TBS) [20 mM tris (pH 8.0) and 150 mM NaCl] for 1 hour shaking at room temperature. Primary antibodies [monoclonal rabbit anti-LRRK2 (Abcam, ab133474; RRID: AB_2713963), polyclonal rabbit anti-LRRK1 (Abcam, ab228666), monoclonal rabbit anti-LRRK2 phospho-S935 (Abcam, ab133450; RRID: AB_2732035), monoclonal rabbit anti-Rab8a phospho-T72 (Abcam, ab230260; RRID: AB_2814988), monoclonal rabbit anti-Rab7 phospho-S72 (Abcam, ab302494; RRID: AB_2933985), monoclonal rabbit anti–glyceraldehyde-3-phosphate dehydrogenase (GAPDH; Cell Signalling Technology, 2118; RRID: AB_561053), and monoclonal mouse anti-GFP (Santa Cruz Biotechnology, sc-9996; RRID: AB_627695)] were diluted in 5% milk in TBS and incubated with membrane for 16 hours at 4°C. Following incubation, membranes were washed three times with 1× TBS-T [20 mM tris (pH 8.0), 150 mM NaCl, and 0.1% Tween 20] before incubation with IRDye 680RD goat anti-rabbit IgG (LI-COR, 926-68071; RRID: AB_10956166) and IRDye 800CW goat anti-mouse IgG (LI-COR, 926-32210; RRID: AB_621842) secondary antibodies in 5% milk in 1× TBS for 1 hour at room temperature. Membranes were then washed three times in 1× TBS-T before imaging on Li-COR Odyssey CLx controlled by Imaging Studio software (www.licorbio.com/image-studio, RRID:SCR_015795). Image processing and quantification were performed in ImageJ version 2.14.0 (National Institutes of Health; https://imagej.net/, RRID:SCR_003070). The signal intensity of each band was assessed using the Analyze>Gels tool. The band intensity for phosphorylated LRRK2 was measured and compared to total LRRK2 levels (run under identical conditions on a separate gel). Band intensity for phosphorylated Rab7 or Rab8a was measured and compared against total GFP-Rab7 or GFP-Rab8a (using anti-GFP antibody) and LRRK1/LRRK2 levels as appropriate. Comparative statistical analysis of phosphorylation levels was analyzed using a one-way analysis of variance (ANOVA) and corrected using Tukey’s multiple comparisons test in GraphPad Prism 10 (www.graphpad.com/, RRID:SCR_002798). (For current step-by-step protocol for LRRK transfection and Western blotting, see dx.doi.org/10.17504/protocols.io.kxygx9bozg8j/v1.)

Cc1ccc(-n2nc(C(C)(C)C)cc2NC(=O)Nc2cccc(-c3c[nH]c4nc(Cl)nc(N5CCOCC5)c34)c2)cc1 [Compound 30]
pRab8/Rab8/LRRK2 normalized to DMSO, Mean (LRRK2; 250 nM, 4 h, 3 replicates): 1.123 | pRab8/Rab8/LRRK2 normalized to DMSO (LRRK2; 250 nM, 4 h, individual Western blots, listed as 277): 1.0545 and 1.033 and 1.2826 | pRab8/Rab8/LRRK2 normalized to DMSO, Mean (LRRK2; 500 nM, 4 h, 3 replicates): 0.8664 | pRab8/Rab8/LRRK2 normalized to DMSO (LRRK2; 500 nM, 4 h, individual Western blots, listed as 277): 0.8279 and 0.7001 and 1.071 | pRab8/Rab8/LRRK2 normalized to DMSO, Mean (LRRK2; 1 μM, 4 h, 3 replicates): 0.8611 | pRab8/Rab8/LRRK2 normalized to DMSO (LRRK2; 1 μM, 4 h, individual Western blots, listed as 277): 0.8817 and 0.6143 and 1.087 | pRab8/Rab8/LRRK2 normalized to DMSO, Mean (LRRK2; 5 μM, 4 h, 3 replicates): 0.2926 | pRab8/Rab8/LRRK2 normalized to DMSO (LRRK2; 5 μM, 4 h, individual Western blots, listed as 277): 0.3266 and 0.2385 and 0.3127 | pRab8/Rab8/LRRK2 normalized to DMSO, Mean (LRRK2; 10 μM, 4 h, 3 replicates): 0.2543 | pRab8/Rab8/LRRK2 normalized to DMSO (LRRK2; 10 μM, 4 h, individual Western blots, listed as 277): 0.2723 and 0.2085 and 0.282 | toxicity (LRRK2; 293T cells, any of the concentrations used): Toxicity did not appear to be an issue | effect on phosphorylation of Rab8a in cells (LRRK2; 293T cells, increasing concentrations): reduced phosphorylation of Rab8a in a dose-dependent manner | pRab8/Rab8/LRRK2 normalized to DMSO, Mean (LRRK2; GFP-11 tagged WT LRRK2, 5 μM, 4 replicates): 0.2436 | pRab8/Rab8/LRRK2 normalized to DMSO (LRRK2; GFP-11 tagged WT LRRK2, 5 μM, individual blots, normalized to WT DMSO, listed as RN277): 0.1001 and 0.2331 and 0.598 and 0.04303 | inhibition of Rab8a phosphorylation by wild-type and G2019S LRRK2 (G2019S LRRK2; 293T cells): inhibited phosphorylation of Rab8a by both the wild-type and mutant kinase | pRab8/Rab8/LRRK2 normalized to DMSO, Mean (G2019S LRRK2; GFP-11 tagged G2019S LRRK2, 5 μM, 4 replicates): 0.5785 | pRab8/Rab8/LRRK2 normalized to DMSO (G2019S LRRK2; GFP-11 tagged G2019S LRRK2, 5 μM, individual blots, normalized to WT DMSO (G2019S DMSO mean 2.25334), listed as RN277): 0.5672 and 0.4996 and 1.119 and 0.1285 | pRab7/Rab7/LRRK1 normalized to DMSO, Mean (LRRK1; 250 nM): 0.2801 | pRab7/Rab7/LRRK1 normalized to DMSO (LRRK1; 250 nM, listed as RN277): 0.1952 and 0.2204 and 0.4248 | pRab7/Rab7/LRRK1 normalized to DMSO, Mean (LRRK1; 500 nM): 0.132 | pRab7/Rab7/LRRK1 normalized to DMSO (LRRK1; 500 nM, listed as RN277): 0.134 and 0.06831 and 0.1937 | pRab7/Rab7/LRRK1 normalized to DMSO, Mean (LRRK1; 1 μM): 0.07421 | pRab7/Rab7/LRRK1 normalized to DMSO (LRRK1; 1 µM, listed as RN277): 0.05675 and 0.07868 and 0.08722 | pRab7/Rab7/LRRK1 normalized to DMSO, Mean (LRRK1; 5 μM): 0.02826 | pRab7/Rab7/LRRK1 normalized to DMSO (LRRK1; 5 µM, listed as RN277): 0.01168 and 0.03108 and 0.04201 | inhibition of LRRK1 kinase activity in cells (LRRK1; 293T cells, Rab7 phosphorylation, listed as RN277): strong inhibitory effect; also recorded: potently inhibited LRRK1 in cells
